# Measurements published in PMC8381505, “Phase 1 clinical trial of the PI3Kδ inhibitor YY-20394 in patients with B-cell hematological malignancies” (Journal of Hematology & Oncology, 2021).
# Experiments:
# [1] = system: relapsed or refractory B-cell malignancies; experiment: Phase 1 dose escalation: efficacy (ORR, DCR, PFS) in patients; assay type: in vivo, human
# Procedure: Patients ≥ 18 years old with refractory or relapsed B-cell malignancies were enrolled from November, 2017 to completion of the trial in November, 2019. Inclusion and exclusion criteria are listed in Additional file 2 and baseline patient characteristics in Additional file 3: Table S2.
# (§1) During dose escalation, patients received YY-20394 tablets q.d. at dosages of 20, 40, 80, 140 or 200 mg. The maximum tolerated dose (MTD), dose escalation phase and dose-limiting toxicity (DLT) as well as hematological toxicity classifications are described in Additional file 4. The primary endpoints were safety, tolerability and the MTD of YY-20394. Secondary endpoints were PK parameters and efficacy. Response criteria followed the revised International Research Working Group (IRWG) for non-Hodgkin lymphomas (NHL), and the International Working Group on Chronic Lymphocytic Leukemia (IWCLL) criteria for CLL [8]. Efficacy determinations were the objective response rate (ORR), disease control rate (DCR), complete remission (CR), partial remission (PR), stable disease (SD), progressive disease (PD) and progression-free survival (PFS).
# PI3Kβ = experiment: PI3K isoform selectivity, β versus δ; assay type: biochemical
# basophil activation = experiment: Inhibition of basophil activation in vitro; assay type: cell-based; settings: at the serum concentration produced by the 80 mg dose level
# [2] = Procedure: as §1
# The safety evaluation of YY-20394 included adverse events (AEs) and serious AEs (SAEs) by standard categorizations.
# The maximum tolerated dose (MTD) was established during the dose escalation phase, based on dose-limiting toxicity (DLT) developments, which were defined as: death; grade IV hematological toxicity with a duration of 1 week; or non-hematological toxicities ≥ grade III. […] At the end of the tolerance test, the dose extension test was conducted, in which YY-20394 was administered for a period of 28 days per cycle until the disease progressed or toxicity developed beyond tolerance. Patients visited the clinic once a week during treatment cycle 1 and every 2 weeks during cycle 2 and once a month thereafter.
# [3] = 10 FL patients, 9/10, 95% CI 71.4, 100.0
# [4] = number of patients of 25 evaluable
# [5] = drug-related AE, n (%) of 25 evaluable patients
smiles,measurement,setting,value
"COc1ncc(-c2nc(N3CCOCC3)nc3c(CN4CCC(C(C)(C)O)CC4)cc(F)cc23)cc1NS(C)(=O)=O [YY-20394, N-[5-[6-fluoro-8-[[4-(1-hydroxy-1-methylethyl)-1-piperidinyl]methyl]-2-(4-morpholinyl)-4-quinazolinyl]-2-methoxy-3-pyridinyl]-methanesulfonamide]",longest treatment duration,"[1]; 40 mg, CLL/SLL patient",36 months
same,"median PFS time, follicular lymphoma",[1]; 10 FL patients,300 days
same,"DCR, follicular lymphoma",[1]; [3],90%
same,"ORR, follicular lymphoma",[1]; [3],90%
same,overall ORR,"[1]; 25 evaluable patients, 16/25, 95% CI 45.2, 82.8%",64.0%
same,disease control rate (DCR),"[1]; 25 evaluable patients, 18/25, 95% CI 54.4, 89.6%",72.0%
same,median PFS time,[1]; all evaluable patients combined,255 days
same,"CR, follicular lymphoma","[1]; number of FL patients, 80 mg",3
same,"PD, follicular lymphoma","[1]; number of FL patients, 200 mg",1
same,"PR, follicular lymphoma","[1]; number of FL patients, 1/40 mg and 5/80 mg",6
same,complete remission (CR),[1]; [4],5
same,partial remission (PR),[1]; [4],11
same,progressive disease (PD),[1]; [4],7
same,durable response,"[1]; one PR patient with CLL/SLL, 40 mg q.d.",around 36 months
same,Ratio of IC50 β/δ,PI3Kβ,30
same,inhibition of basophil activation in vitro,basophil activation,90%
same,Ratio of IC50 γ/δ,PI3Kγ,1125
same,kinase inhibition profile more PI3Kδ-selective,"PI3Kγ; PI3Kδ versus PI3Kγ, compared with idelalisib",~2 orders of magnitude
same,maximum tolerated dose (MTD),[2]; 20–200 mg daily,not reached
same,"Upper respiratory tract infection, number of patients with grade I/II at > 5% incidence",[2]; [5],4 (16.0)
same,"Upper respiratory tract infection, number of patients with ≥ grade III",[2]; [5],1 (4.0)
same,"Anemia, number of patients with grade I/II at > 5% incidence","[2]; human, in vivo",3 (12.0)
same,"Anemia, number of patients with ≥ grade III","[2]; human, in vivo",0
same,"Cough, number of patients with grade I/II at > 5% incidence","[2]; human, in vivo",2 (8.0)
same,"Cough, number of patients with ≥ grade III","[2]; human, in vivo",0
same,"Diarrhea, number of patients with grade I/II at > 5% incidence","[2]; human, in vivo",2 (8.0)
same,"Diarrhea, number of patients with ≥ grade III","[2]; human, in vivo",0
same,"Elevated alanine aminotransferase, number of patients with grade I/II at > 5% incidence","[2]; human, in vivo",3 (12.0)
same,"Elevated alanine aminotransferase, number of patients with ≥ grade III","[2]; human, in vivo",0
same,"Elevated aspartate aminotransferase, number of patients with grade I/II at > 5% incidence","[2]; human, in vivo",2 (8.0)
same,"Elevated aspartate aminotransferase, number of patients with ≥ grade III","[2]; human, in vivo",0
same,"Elevated bilirubin, number of patients with grade I/II at > 5% incidence","[2]; human, in vivo",2 (8.0)
same,"Elevated bilirubin, number of patients with ≥ grade III","[2]; human, in vivo",0
same,"Elevated serum alkaline phosphatase, number of patients with grade I/II at > 5% incidence","[2]; human, in vivo",3 (12.0)
same,"Elevated serum alkaline phosphatase, number of patients with ≥ grade III","[2]; human, in vivo",0
same,"Elevated serum lactate dehydrogenase, number of patients with grade I/II at > 5% incidence","[2]; human, in vivo",11 (44.0)
same,"Elevated serum lactate dehydrogenase, number of patients with ≥ grade III","[2]; human, in vivo",1 (4.0)
same,"Elevated serum α-hydroxybutyrate dehydrogenase, number of patients with grade I/II at > 5% incidence","[2]; human, in vivo",6 (24.0)
same,"Elevated serum α-hydroxybutyrate dehydrogenase, number of patients with ≥ grade III","[2]; human, in vivo",1 (4.0)
same,"Elevated γ-glutamyltransferase, number of patients with grade I/II at > 5% incidence","[2]; human, in vivo",2 (8.0)
same,"Elevated γ-glutamyltransferase, number of patients with ≥ grade III","[2]; human, in vivo",0
same,"Fatigue, number of patients with grade I/II at > 5% incidence","[2]; human, in vivo",2 (8.0)
same,"Fatigue, number of patients with ≥ grade III","[2]; human, in vivo",0
same,"Fever, number of patients with grade I/II at > 5% incidence","[2]; human, in vivo",2 (8.0)
same,"Fever, number of patients with ≥ grade III","[2]; human, in vivo",0
same,"Hyperbilirubinemia, number of patients with grade I/II at > 5% incidence","[2]; human, in vivo",3 (12.0)
same,"Hyperbilirubinemia, number of patients with ≥ grade III","[2]; human, in vivo",0
same,"Hyperuricemia, number of patients with grade I/II at > 5% incidence","[2]; human, in vivo",5 (20.0)
same,"Hyperuricemia, number of patients with ≥ grade III","[2]; human, in vivo",3 (12.0)
same,"Leukocytosis, number of patients with grade I/II at > 5% incidence","[2]; human, in vivo",2 (8.0)
same,"Leukocytosis, number of patients with ≥ grade III","[2]; human, in vivo",0
same,"Leukopenia, number of patients with grade I/II at > 5% incidence","[2]; human, in vivo",11 (44.0)
same,"Leukopenia, number of patients with ≥ grade III","[2]; human, in vivo",2 (8.0)
same,"Lymphocythemia, number of patients with grade I/II at > 5% incidence","[2]; human, in vivo",3 (12.0)
same,"Lymphocythemia, number of patients with ≥ grade III","[2]; human, in vivo",2 (8.0)
same,"Maculopapule, number of patients with grade I/II at > 5% incidence","[2]; human, in vivo",2 (8.0)
same,"Maculopapule, number of patients with ≥ grade III","[2]; human, in vivo",0
same,"Neutropenia, number of patients with grade I/II at > 5% incidence","[2]; human, in vivo",17 (68.0)
same,"Neutropenia, number of patients with ≥ grade III","[2]; human, in vivo",11 (44.0)
same,"Oropharyngeal pain, number of patients with grade I/II at > 5% incidence","[2]; human, in vivo",2 (8.0)
same,"Oropharyngeal pain, number of patients with ≥ grade III","[2]; human, in vivo",0
same,"Pneumonia, number of patients with grade I/II at > 5% incidence","[2]; human, in vivo",4 (16.0)
same,"Pneumonia, number of patients with ≥ grade III","[2]; human, in vivo",4 (16.0)
same,"Pneumonitis, number of patients with grade I/II at > 5% incidence","[2]; human, in vivo",3 (12.0)
same,"Pneumonitis, number of patients with ≥ grade III","[2]; human, in vivo",2 (8.0)
same,"Proteinuria, number of patients with grade I/II at > 5% incidence","[2]; human, in vivo",4 (16.0)
same,"Proteinuria, number of patients with ≥ grade III","[2]; human, in vivo",0
same,"Thrombocytopenia, number of patients with grade I/II at > 5% incidence","[2]; human, in vivo",5 (20.0)
same,"Thrombocytopenia, number of patients with ≥ grade III","[2]; human, in vivo",1 (4.0)
same,"Weight gain, number of patients with grade I/II at > 5% incidence","[2]; human, in vivo",2 (8.0)
same,"Weight gain, number of patients with ≥ grade III","[2]; human, in vivo",1 (4.0)
same,"Weight loss, number of patients with grade I/II at > 5% incidence","[2]; human, in vivo",3 (12.0)
same,"Weight loss, number of patients with ≥ grade III","[2]; human, in vivo",0
same,dose-limiting toxicity (DLT),"[2]; human, in vivo",no patients experienced DLT
same,drug-related AE elevated lactate dehydrogenase,"[2]; human, in vivo",44.0%
same,drug-related AE elevated α-hydroxybutyrate dehydrogenase,"[2]; human, in vivo",24.0%
same,drug-related AE hyperuricemia,"[2]; human, in vivo",20.0%
same,drug-related AE leukopenia,"[2]; human, in vivo",44.0%
same,drug-related AE neutropenia,"[2]; human, in vivo",68.0%
same,drug-related AE thrombocytopenia,"[2]; human, in vivo",20.0%
same,drug-related AE ≥ grade III hyperuricemia,"[2]; human, in vivo",12.0%
same,drug-related AE ≥ grade III leukopenia,"[2]; human, in vivo",8.0%
same,drug-related AE ≥ grade III lymphocythemia,"[2]; human, in vivo",8.0%
same,drug-related AE ≥ grade III neutropenia,"[2]; human, in vivo",44.0%
same,drug-related AE ≥ grade III pneumonia,"[2]; human, in vivo",16.0%
same,drug-related AE ≥ grade III pneumonitis,"[2]; human, in vivo",8.0%
same,grade IV hyperuricemia,"[2]; human, in vivo",3 cases
same,grade IV neutropenia,"[2]; human, in vivo",4
same,grade V AEs,"[2]; human, in vivo",no grade V AEs occurred
same,"incidence of diarrhea, colitis, and hepatotoxicities","[2]; human, in vivo",very low
same,number of ≥ grade III AEs,"[2]; human, in vivo",32
same,patients who experienced SAEs,"[2]; human, in vivo",52.0%
same,patients who experienced drug-related AEs (so in the source),"[2]; human, in vivo",36.0%
same,patients with ≥ 1 AE,"[2]; human, in vivo",25 patients
